The values below come from ChEMBL document CHEMBL3507680, “University of Dundee, Gates Library screen for HepG2 cell viability”.

SMILES strings stand for the structures.

The nature of this data set: Human HepG2 cell viability assay in 384 well format. Format: toxicity, cell-based. Set-up: dose 125 nL, time 70.5 hour; concentration not given beside the values. As to conditions: HepG2 cells, read-out: Inhibition.
Take `OCc1cnc(Nc2ccccc2)nc1`: the cytotoxicity at 70.5 h was 10.1%. Consider `COC(=O)c1cccn1C1CCN(Cc2cnc3ccccn23)CC1`, for which the cytotoxicity at 70.5 h was found to be 10.2%.

Regarding `CN1CCOC(c2cncc(CCC(=O)N(C)C)n2)C1` (stereo not given), the cytotoxicity at 70.5 h was -2.29%. In the case of `CCCN1CC2(CCN(C)CC2)CC1C(=O)NCCn1ccc(C)n1` (stereo not given), the cytotoxicity at 70.5 h is -1.37%. As for `COCC(=O)N1CC[C@@H]2CN(Cc3cccc(Cl)c3)S(=O)(=O)[C@@H]2CC1`, the cytotoxicity at 70.5 h came out at 24.3%. As for `CC(=O)N(Cc1noc(C)n1)C1CCN(Cc2cccc(C#N)c2)C1` (stereo not given), the cytotoxicity at 70.5 h came to 30.1%. To `Cc1nc(CCCN2CCOCC2)n(Cc2ccc(F)cc2)n1` belongs -12.5%. As for `CCOc1ccc(Cl)c(C(=O)N2CCN(c3ncccn3)CC2)n1`, the cytotoxicity at 70.5 h is -12.1%. As to `CC(=O)NC[C@H]1COCc2nc3cc(S(C)(=O)=O)ccc3n21`, the cytotoxicity at 70.5 h is -0.348%. On to `CSCc1cccc(S(=O)(=O)NCCCN2CCOCC2)c1`, for which the cytotoxicity at 70.5 h was -6.88%. In the case of `O=C(O)c1cc(-c2ccoc2)cc(S(=O)(=O)NC2CC2)c1`, the cytotoxicity at 70.5 h is -6.76%. For `NCC1(CN2CCOCC2)CCCCC1`, the cytotoxicity at 70.5 h stood at 14.2%. Next, `Cc1noc(C2CCN(Cc3cc(=O)n(C)c(=O)n3C)CC2)n1`: -13.2%. Consider `Cc1cc(C(=O)N[C@H]2CC[C@@]3(CCC(=O)N3C)CC2)no1`, for which the cytotoxicity at 70.5 h is -9.34%. Consider `COCCC(=O)N1CCOCC(Cc2ccc3c(ccn3C)c2)C1` (stereo not given), for which the cytotoxicity at 70.5 h is -6.26%.

On to `Cc1cc(C)n(CC2CN(CCOc3cccc(F)c3)CCO2)n1` (stereo not given), for which the cytotoxicity at 70.5 h is 1.51%.

Take `CC(C)NC(=O)[C@H]1CCS(=O)(=O)[C@@H]2CN(c3ncccn3)C[C@H]12`: the cytotoxicity at 70.5 h is -6.18%. Take `CC1COCCN1C(=O)Cc1cc(Cl)c2c(c1)OCCO2` (stereo not given): the cytotoxicity at 70.5 h was -12.3%. On to `CCC1CCCCN1S(=O)(=O)c1c(N)noc1C` (stereo not given), for which the cytotoxicity at 70.5 h is -2.36%.

For `Cc1nc(-c2ccccc2)n(CC(=O)NC(C)C2CC2)n1` (stereo not given), the cytotoxicity at 70.5 h was -5.73%.

Turning to `CC(c1ccccc1)N(C)CC(=O)NCCC#N` (stereo not given), the cytotoxicity at 70.5 h is -11.2%. Consider `CNC(=O)CN1CCOCC2(CCCN(Cc3ccsc3)C2)C1` (stereo not given), for which the cytotoxicity at 70.5 h is -19.5%. `O=C(c1ccc(F)c(F)c1)N1CCCSCC1CN1CCCC1` (stereo not given): the cytotoxicity at 70.5 h was -0.49%. To `CSCc1cc(F)ccc1CNCc1ncc[nH]1` belongs -8.53%.

On to `Cc1nc(CN2CCC3(CCN(Cc4nccn4C)CC3)C2=O)cs1`, for which the cytotoxicity at 70.5 h is -7.58%. In the case of `O=C1c2cnc(N3CCOCC3)nc2CN1Cc1cccc(F)c1`, the cytotoxicity at 70.5 h is -6.18%. For `CCN(Cc1nonc1C)C(=O)Cn1nc(C(F)(F)F)cc1C`, the cytotoxicity at 70.5 h is -9.27%. For `CC(C)n1ccc(C(=O)OCC2CC(=O)N(Cc3ccccc3)C2)n1` (stereo not given), the cytotoxicity at 70.5 h is -8.67%. For the compound `CCN(CC)C(=O)[C@@H]1C[C@H](N)CN1c1noc(-c2ccccc2)n1`, the cytotoxicity at 70.5 h is -3.04%. In the case of `Cc1ccc(CN2CCC(O)(Cn3ccc4ncccc43)CC2)o1`, the cytotoxicity at 70.5 h is -0.742%. For the compound `Cc1nc(-c2cc(F)c3c(c2)CC(CN)O3)c[nH]1` (stereo not given), the cytotoxicity at 70.5 h turned out to be 3.79%. Next, `CC(Cc1ccccc1F)C(=O)Nc1ccc(OCCC(N)=O)cc1` (stereo not given): -3.92%; `O=C1CN(C(=O)C2CCOC2)CCN1Cc1ccc(Cl)cc1` (stereo not given): 23.8%; `COc1ccc(CNC(=O)NCCc2csc(C)n2)cn1`: 10.9%. As for `CCC(CC)C(=O)NCc1c(C)nn(C)c1N1CCCN(C)CC1`, the cytotoxicity at 70.5 h turned out to be 22.5%.

In the case of `Cc1nnc(CN2CCCC2c2ccc(C(C)(C)C)cc2)o1` (stereo not given), the cytotoxicity at 70.5 h was -3.63%. Next, `CS(=O)(=O)CCN(CCc1cccc(F)c1)C1CC1`: -0.807%.

Turning to `Cc1cnc(C)c(N2CCN(Cc3ccc(C)c(C)c3)CC2)n1`, the cytotoxicity at 70.5 h turned out to be 3.81%. As for `Cn1cc(CN2CCO[C@H]3CN(Cc4ccco4)C[C@H]32)cn1`, the cytotoxicity at 70.5 h was -2.62%. Regarding `Cc1ccc(N2C[C@@H]3CCCO[C@@H]3[C@H](N3CCCC3)C2)nn1`, the cytotoxicity at 70.5 h was 27%. For `CN1CCc2c(C#N)c(NCc3ccccc3)n3cnnc3c2C1`, the cytotoxicity at 70.5 h was found to be 17.9%. Next, `Cc1cc(C)c(S(=O)(=O)Nc2c(C)noc2C)cc1C(=O)O`: -2.9%; `CNC(=O)[C@@]12CCC3(CCN(C(=O)C(C)C)CC3)[C@@H]1CN(S(C)(=O)=O)C2`: 2.4%. `CCOC(=O)CCNC(=O)c1cccc2ccc(C)nc12`: the cytotoxicity at 70.5 h was 0.845%. Next, `Cc1ccccc1-n1cc(C2=CCN(CCn3cc[nH]c3=O)CC2)cn1`: -6.71%; `Cc1noc(CN(C)CC2CCCN(CCc3ccc(Cl)cc3)C2)n1` (stereo not given): -11.4%.

Take `Cn1cc(CNCC2(N3CCCCC3)Cc3ccccc3C2)cn1`: the cytotoxicity at 70.5 h is -4.33%. To `COC[C@@H]1CCC[C@@]12CN(C(=O)N1CCCC1)CCO2` belongs -12.3%; to `Cc1n[nH]c(C)c1S(=O)(=O)N1CCC(Oc2cnccn2)CC1`, -2.37%; to `COc1cccc2c3c(c(=O)[nH]c12)CCC(C)(C)O3`, -5.31%. Turning to `CN1CCN(CC2CN(CC3CC3)Cc3nccn3C2)CC1` (stereo not given), the cytotoxicity at 70.5 h is -6.02%. Regarding `O=C(c1ccnnc1)N1CCc2onc(Cn3cccn3)c2C1`, the cytotoxicity at 70.5 h was -3.08%. To `NC(=O)c1cnn2c1NCC(CNCC1(c3ccccc3)CCCC1)C2` (stereo not given) belongs 0.136%. For `COCC(=O)N[C@H](C)c1onc(-c2ccc(Cl)cc2)c1C(=O)O`, the cytotoxicity at 70.5 h is -1.96%.

In the case of `CC(C)CNC(=O)c1cc2c(s1)CCN2Cc1cccnc1`, the cytotoxicity at 70.5 h was -1.22%. Take `CN(CCO)c1nc(-c2ccccn2)nc2c1CCNC2`: the cytotoxicity at 70.5 h was -0.45%. Regarding `OCc1ccc(CN2CCC(n3cc(-c4ccsc4)nn3)CC2)o1`, the cytotoxicity at 70.5 h is -5.24%. In the case of `COCC(O)CN(C)c1ccnc2cc(F)ccc12` (stereo not given), the cytotoxicity at 70.5 h amounted to 13.1%.

Take `CNS(=O)(=O)CCCN1CCCC1c1cc(C)on1` (stereo not given): the cytotoxicity at 70.5 h was determined as 1.72%. Turning to `Cc1cc(C(=O)N2C[C@@H]3COC[C@]3(CN(C)C)C2)sc1C`, the cytotoxicity at 70.5 h is -11.8%. With `CCc1noc(C2CCCCN2C(=O)c2ccoc2C)n1` (stereo not given), the cytotoxicity at 70.5 h came out at 9.18%.

`Cn1ncnc1-c1ccnc(NCc2ccncc2)n1`: the cytotoxicity at 70.5 h is -13.8%.

Take `CCn1ccnc1CN1CCC(=O)N(CC2CC2)C(C(C)C)C1` (stereo not given): the cytotoxicity at 70.5 h came to 31.2%. Next, `Cc1cc(C)n(CC(=O)N2CCC(NS(=O)(=O)c3ccccc3)CC2)n1`: -5.45%; `Cc1cccc(I)c1C(=O)NCc1ncc[nH]1`: -10.8%; `O=C(NCCN1CCCCC1=O)C1CCC(=O)N(C2CCCC2)C1` (stereo not given): -3.21%. `Fc1ccccc1Cc1noc(CN2CCC(C3CCCCC3)C2)n1` (stereo not given): the cytotoxicity at 70.5 h worked out at 34.7%. In the case of `Cc1cc2[nH]cc(C(=O)N3CCCCC3c3ccc(F)cc3)c(=O)n2n1` (stereo not given), the cytotoxicity at 70.5 h is -3.07%. `CC(NC(=O)NCCCOC1CCCCC1)c1nncn1C` (stereo not given): the cytotoxicity at 70.5 h was -6.4%. Consider `COCCn1ccnc1C1CCCN(C(=O)c2ccccc2C#N)C1` (stereo not given), for which the cytotoxicity at 70.5 h turned out to be 0.955%. With `CCOC1COC2(CCN(S(=O)(=O)c3ccc(F)cc3)CC2)C1` (stereo not given), the cytotoxicity at 70.5 h was -12.9%. As to `Cn1nnc2c(sc3nc(N4CCOCC4)c4c(c32)CCC4)c1=O`, the cytotoxicity at 70.5 h was -16%.

Turning to `CNC(=O)N1CCCCC1CCNS(C)(=O)=O` (stereo not given), the cytotoxicity at 70.5 h is -13.3%. Next, `COC(=O)N1CCCCC1C(=O)N1CCCN(c2ccnc(C)c2)CC1` (stereo not given): -7.79%.

Turning to `O=C(CC1CCCC1)N1CCC(c2nnc(-c3ccccn3)o2)CC1`, the cytotoxicity at 70.5 h was determined as 31.3%.

Turning to `CCC1CN(CC(=O)Nc2sccc2C#N)CCO1` (stereo not given), the cytotoxicity at 70.5 h was -8.24%. Next, `COc1ccc(CN2CCCn3nnc(COCC4CC4)c3C2)cc1`: -12.2%; `Cc1nnc(C[C@@H]2COC[C@H]3CN(C(=O)C4=CCCC4)C[C@@H]23)o1`: -13.7%. For `CCn1cc(Br)c(C(=O)NCc2cccnc2)n1`, the cytotoxicity at 70.5 h is -7.68%. Turning to `Cc1nn(C)cc1Cn1c(=O)cnc2ccccc21`, the cytotoxicity at 70.5 h was -19.1%. In the case of `CCn1cc(CN2CCCN(C(=O)CCc3ccccc3)CC2)cn1`, the cytotoxicity at 70.5 h is -12.3%. `Cc1nc(CN2CCN(c3ccc(Cl)cn3)CC2)no1`: the cytotoxicity at 70.5 h was -6.61%.

Take `Clc1ccccc1-c1nnc(CNCCn2cccn2)o1`: the cytotoxicity at 70.5 h was -8.51%. Next, `COCCNc1nc2c(c(NCCc3cccs3)n1)CCNCC2`: -2.67%; `CC(NC(=O)c1cnccn1)c1nnc2ccccn12` (stereo not given): -4.81%; `CCC(CNC(=O)c1ccco1)N1CCc2ccccc2C1` (stereo not given): -12.8%. As to `Cn1c(=O)c2sccc2n(CC(=O)Nc2cccc(Cl)c2)c1=O`, the cytotoxicity at 70.5 h is 8.96%. Consider `CCCC(=O)N1CCC(c2cc[nH]n2)C1` (stereo not given), for which the cytotoxicity at 70.5 h amounted to 0.0603%.

Consider `O=C(CCN1CCOC(C(F)(F)F)C1)NCc1ccc(Cl)cc1` (stereo not given), for which the cytotoxicity at 70.5 h was -0.312%. On to `CCN1CCc2cc(C(=O)N(C)C)c(NCC3CC3)nc2CC1`, for which the cytotoxicity at 70.5 h came out at 2.86%. For `CN1CC[C@]2(CN(CC3CCOC3)C[C@H]2c2ccccc2)C1=O` (stereo not given in full), the cytotoxicity at 70.5 h stood at 16.2%.

For the compound `Cc1nc(NC2CCCCC2)cc(C2CCCNC2)n1` (stereo not given), the cytotoxicity at 70.5 h came to 26.4%.

Consider `COCCN(C)C(=O)c1ccccc1-n1cccn1`, for which the cytotoxicity at 70.5 h was 5.05%. To `COCC(=O)N1C[C@H]2CNC[C@@]2(C(=O)NCc2cc(C)n[nH]2)C1` belongs -5.27%; to `Cc1noc(C)c1C(=O)N(C)C(C)c1ccncc1` (stereo not given), -5.68%. Turning to `C=Cc1ccc(C(=O)NC2CCCc3nc(N(C)C)ncc32)cc1` (stereo not given), the cytotoxicity at 70.5 h was determined as 16.1%. Next, `Cc1nc(N2C[C@@H](CN3CCCN(C)CC3)[C@@H](CO)C2)c2ccsc2n1`: 11.6%; `Cc1n[nH]c(C2CN(Cc3nnc(C4CCC4)o3)CCO2)n1` (stereo not given): -1.02%; `COC[C@@]12CCO[C@@H]1CCN(C(=O)CCc1ccccc1Cl)C2`: -3.89%. Next, `CC[C@@H]1N(Cc2ccc(C)o2)CCC[C@]12CCC(=O)N2CCOC`: 16.8%.
